Measurements reported in US20160213788A1, “ACTIVE TARGETING ANTITUMOR DRUG AND PREPARATION METHOD THEREFOR” (NINGBO INSTITUTE OF MATERIALS TECHNOLOGY & ENGINEERING, …, priority 2013, published 2016).

Tests used:
[1] = test system: human breast cancer MCF-7 cells; assay: MTT test (cell toxicity test); type: cell-based; conditions: for survival rate of cell (%): MCF-7, 4 h exposure then 44 h culture
Procedure: (§1) (1) MTT test (cell toxicity test)
(§2) 1. formulating a single cell suspension with a medium containing 10% fetal calf serum, and then seeding the suspension into 96-well plates in 1.0×10^5 cells per well. The volume of each well was 150 μL.
(§3) 2. placing the plates into a cell incubator of 37° C. and culturing for 24 h.
(§4) 3. absorbing and discarding the supernatant of the medium in the well, and adding […], fresh medium containing TXT or […], solution containing composition [D-Arg^25]-NPY-ANP-TXT with same concentration of TXT.
(§5) 4. placing into a cell incubator of 37° C. and culturing for 4 h, absorbing and discarding the supernatant of the medium in the well, and then replacing with fresh medium contain no medication or nanoparticle composition, and continuing to culture for 44 h.
(§6) 5. adding 10 μL MTT solution (5 mg/ml, in PBS, pH=7.4) into each well, placing the plates into a cell incubator of 37° C. and continuing to culture for 4 h, terminating the culture, and then absorbing and discarding the supernatant of the medium in the well.
(§7) 6. adding 150 μL DMSO into each well, oscillating for 10 min, so that the crystal was fully thawed.
(§8) 7. selecting 550 nm wavelength, and measuring the light absorbance for each well with enzyme-linked immunosorbent monitor and recording the results.
(§9) The cells used in cell experiments comprised human breast cancer MCF-7 cells, human endometrial tumors HEC-1B-Y5 cells (Purchased from American Type Culture Collection (ATCC) and Sciencell company(USA))

[2] = test system: human endometrial tumors HEC-1B-Y5 cells; assay: MTT test (cell toxicity test); type: cell-based; conditions: for survival rate of cell (%): HEC-1B-Y5, 4 h exposure then 44 h culture
Procedure: as §1, §2, §3, §4, §5, §6, §7, §8, §9

CC(=O)O[C@@]12CO[C@@H]1C[C@H](O)[C@@]1(C)C(=O)[C@H](O)C3=C(C)[C@@H](OC(=O)[C@H](O)[C@@H](NC(=O)OC(C)(C)C)c4ccccc4)C[C@@](O)([C@@H](OC(=O)c4ccccc4)[C@H]21)C3(C)C [TXT, docetaxel]
survival rate of cell (%) ([1]; CTXT 0.5 μg/mL): 90% | survival rate of cell (%) ([1]; CTXT 1.0 μg/mL): 80% | survival rate of cell (%) ([1]; CTXT 2.0 μg/mL): 50% | survival rate of cell (%) ([1]; CTXT 5.0 μg/mL): 20% | survival rate of cell (%) ([1]; CTXT 10.0 μg/mL): 20% | killing effect (in words) ([1]; MCF-7 cells): excellent killing effect | survival rate of cell (%) ([2]; CTXT 0.5 μg/mL): 91% | survival rate of cell (%) ([2]; CTXT 1.0 μg/mL): 79% | survival rate of cell (%) ([2]; CTXT 2.0 μg/mL): 55% | survival rate of cell (%) ([2]; CTXT 5.0 μg/mL): 40% | survival rate of cell (%) ([2]; CTXT 10.0 μg/mL): 30% | killing effect (in words) ([2]; HEC-1B-Y5 cells): excellent killing effect
